As usually defined, the IC50 is the concentration that gives 50% inhibition. For orientation: MIC means the smallest concentration in the dilution series that meets the test's criterion for growth inhibition. A higher MIC goes with a need for much substance.

Converted amounts (≈) assume the structure as drawn. Where a name gives a salt, the structure may show the parent alone. Read-outs that look alike come from different tables or passages of the source. A value given as a limit tells only on which side of the number the result lay.

These results are taken from patent publication US20210070747A1, “2(1H)-QUINOLINONE DERIVATIVE” (priority 2017, published 2021).

For one assay, the target named is T1, E. coli topoisomerase IV (Escherichia coli, UniProt P20083).
T1 construct: purchased Inspiralis
T1 sequence (P20083 whole entry): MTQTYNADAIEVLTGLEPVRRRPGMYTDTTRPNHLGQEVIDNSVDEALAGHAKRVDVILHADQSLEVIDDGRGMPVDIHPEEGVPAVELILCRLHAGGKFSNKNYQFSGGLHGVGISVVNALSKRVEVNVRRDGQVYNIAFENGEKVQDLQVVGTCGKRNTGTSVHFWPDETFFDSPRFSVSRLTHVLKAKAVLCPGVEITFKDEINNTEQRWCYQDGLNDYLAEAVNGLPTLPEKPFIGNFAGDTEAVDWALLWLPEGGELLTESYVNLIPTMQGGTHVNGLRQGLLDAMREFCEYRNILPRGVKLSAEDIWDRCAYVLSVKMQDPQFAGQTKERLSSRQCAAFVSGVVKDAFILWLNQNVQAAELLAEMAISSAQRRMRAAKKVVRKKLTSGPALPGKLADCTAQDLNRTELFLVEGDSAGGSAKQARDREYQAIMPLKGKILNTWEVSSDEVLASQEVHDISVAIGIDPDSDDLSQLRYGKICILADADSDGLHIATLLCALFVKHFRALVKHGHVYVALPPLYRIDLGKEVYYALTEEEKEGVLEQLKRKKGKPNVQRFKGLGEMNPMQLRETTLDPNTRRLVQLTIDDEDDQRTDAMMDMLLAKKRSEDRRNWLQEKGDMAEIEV
T1 sequence (P0AFI2 whole entry, further chain): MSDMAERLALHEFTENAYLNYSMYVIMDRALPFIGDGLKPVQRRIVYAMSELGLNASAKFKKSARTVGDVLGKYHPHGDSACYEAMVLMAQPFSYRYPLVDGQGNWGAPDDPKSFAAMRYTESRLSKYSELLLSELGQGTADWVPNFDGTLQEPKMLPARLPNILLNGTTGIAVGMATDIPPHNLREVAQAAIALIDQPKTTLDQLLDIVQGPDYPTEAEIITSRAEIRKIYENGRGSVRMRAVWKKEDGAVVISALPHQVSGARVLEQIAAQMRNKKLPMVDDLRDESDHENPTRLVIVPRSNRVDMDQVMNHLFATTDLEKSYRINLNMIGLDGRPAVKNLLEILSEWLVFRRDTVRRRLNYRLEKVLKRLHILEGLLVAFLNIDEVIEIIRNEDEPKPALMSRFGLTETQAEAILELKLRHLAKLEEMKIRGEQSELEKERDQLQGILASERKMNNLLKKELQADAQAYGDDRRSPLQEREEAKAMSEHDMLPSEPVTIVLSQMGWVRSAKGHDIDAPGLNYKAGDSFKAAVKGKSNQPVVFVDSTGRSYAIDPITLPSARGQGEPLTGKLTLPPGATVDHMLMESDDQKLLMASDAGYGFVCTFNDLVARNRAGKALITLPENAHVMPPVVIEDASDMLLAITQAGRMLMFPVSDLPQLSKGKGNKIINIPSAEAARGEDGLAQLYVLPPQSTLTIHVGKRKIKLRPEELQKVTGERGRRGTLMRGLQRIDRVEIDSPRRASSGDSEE
Description: Test for evaluating the activity of inhibiting E. coli topoisomerase IV enzyme (relaxation). In kind it is biochemical. The method, then:
The enzymatic activity of E. coli topoisomerase IV was measured by a method comprising reacting topoisomerase IV and its substrate, supercoiled pBR322 (Inspiralis), in the presence of ATP and detecting the post-reaction supercoiled pBR322/relaxed pBR322 ratio with H19.
Specifically, to 2 ng/μL of supercoiled pBR322, E. coli topoisomerase IV enzyme (Inspiralis) was added at a final concentration of 0.0075 U/μL and the mixture was incubated for 30 minutes at room temperature. This reaction was carried out in 20 mmol/L tris-HCl buffered solution (pH 8.0) comprising 0.5 mmol/L ATP, 0.005% bridge 35, 35 mmol/L ammonium acetate, 8 mmol/L magnesium chloride, 4.6% glycerol, and 1 mmol/L dithiothreitol. To the reaction mixture, H19 was added to bring the reaction to an end; thereafter, the supercoiled pBR322/relaxed pBR322 ratio was detected at excitation wavelength/emission wavelength=485 nm/535 nm. An inhibition curve was obtained by allowing the analyte compound to be present at varying concentrations during the reaction described above.

The target in assay [1] is T2, E. coli DNA gyrase (Escherichia coli, UniProt P0AES6).
T2 construct: made in house; host or cells: E. coli BL21 (DE3)
Description: Test for evaluating the activity of inhibiting E. coli DNA gyrase enzyme (Method 2, supercoiling, recombinant gyrA/gyrB complex). In kind it is biochemical. Summed up: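 Recombinant E. coli gyrA/gyrB complex (His-tagged, BL21(DE3)-expressed, Ni-NTA purified; 0.135 nmol/mL final) supercoiled relaxed pBR322 (1 ng/μL) with 0.5 mmol/L ATP in pH 8.0 Tris buffer, 60 min at room temperature. H19 stopped the reaction; supercoiled/relaxed ratio read at 485/535 nm, inhibition curves built from varying compound concentrations.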

Assay [2] concerns N. gonorrhoeae ATCC 49226. Description: Test for evaluating antibacterial activity (N. gonorrhoeae), broth microdilution MIC. It counts as cell-based. To be noted: Neisseria gonorrhoeae, ATCC49226; 35° C., 24 hours, gonococcal broth. The essentials:
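Broth microdilution in gonococcal broth with 1% supplement C, inoculum from overnight chocolate II agar culture at McFarland 0.5 diluted 5-fold.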
In general terms: In broth dilution the organism is exposed to a series of concentrations in liquid medium.

The subject of another assay is E. Coli ATCC 25922. Description: Test for evaluating antibacterial activity (E. coli), broth microdilution MIC. In kind it is cell-based. To be noted: Escherichia coli, ATCC25922; 35° C., 18 hours, cation-adjusted Mueller-Hinton medium. The essentials: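 Broth microdilution per modified CLSI method in cation-adjusted Mueller-Hinton medium. Inoculum from overnight heart infusion agar growth, McFarland 0.5 suspension diluted 10-fold; incubation 35° C for 18 hours. MIC taken as lowest drug concentration with no visible growth.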

Assay [3] has as its target T2, E. coli DNA gyrase. Description: Test for evaluating the activity of inhibiting E. coli DNA gyrase enzyme (Method 1, supercoiling, Inspiralis enzyme). It counts as biochemical. The essentials:
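Relaxed pBR322 (1 ng/μL) supercoiled by E. coli gyrase (0.006 U/μL final) with 0.5 mmol/L ATP in 20 mmol/L Tris-HCl pH 8.0, 8 mmol/L MgCl2, 35 mmol/L ammonium acetate, 60 min, room temperature. Stopped with H19; supercoiled/relaxed ratio read at 485/535 nm; inhibition curve across compound concentrations.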

[4] abbreviates: read-out: E. Coli TopoIV relaxation IC50.
The mark [5] stands for this setting: Method 1, read-out: E. Coli Gyrase supercoiling IC50.
Setting [6] is: Method 2, read-out: E. Coli Gyrase supercoiling IC50.

In the case of `CCCCCN(C)Cc1cc(C(=O)O)ccc1NC(=O)c1cc2cc(F)cc(NC)c2[nH]c1=O` [Example 98, 4-{[6-fluoro-8-(methylamino)-2-oxo-1,2-dihydroquinoine-3-carbonyl]amino}-3-{[methyl (pentyl)amino)methyl} benzoic acid], the IC50 came to 41.4 nM against E. coli topoisomerase IV and 0.21 nM at E. coli DNA gyrase [1]. For the same compound, the values for the MIC (in assay [2]; against E. Coli ATCC 25922) were 0.06 µg/mL (≈ 0.128 µM) and 4 µg/mL (≈ 8.54 µM), respectively.
Regarding `CNc1cc(F)cc2cc(C(=O)Nc3ccc(C(=O)O)cc3CN(C)C)c(=O)[nH]c12` [Example 85, 3-[(dimethylamino)methyl]-4-{[6-fluoro-8-(methylamino)-2-oxo-1,2-dihydroquinoline-3-carbonyl]amino} benzoic acid], the IC50 against E. coli topoisomerase IV amounted to 176 nM; at E. coli DNA gyrase [1], 0.61 nM. Besides, the minimum inhibitory concentration (MIC) was 2 µg/mL (≈ 4.85 µM) in assay [2] and more than 4 µg/mL in the assay on E. Coli ATCC 25922.
Take `CNc1cc(F)cc2cc(C(=O)Nc3ccccc3CN(C)C3CCCCC3)c(=O)[nH]c12` [Example 52, N-(2-{[cyclohexyl(methyl)amino]methyl}phenyl)-6-fluoro-8-(methylamino)-2-oxo-1,2-dihydroquinoline-3-carboxamide]: the results for the IC50 on E. coli topoisomerase IV (setting [4]) and on E. coli DNA gyrase [3] (setting [5]) were 519 nM and 2.47 nM, respectively. In addition, the MIC in assay [2] was found to be 0.5 µg/mL (≈ 1.15 µM); in the assay with E. Coli ATCC 25922 it was 16 µg/mL (≈ 36.7 µM).
As for `CNc1cc(F)cc2cc(C(=O)Nc3ccc(C(=O)O)cc3CN3CCCCC3)c(=O)[nH]c12` [Example 96, 4-{[6-fluoro-8-(methylamino)-2-oxo-1,2-dihydroquinoline-3-carbonyl]amino}-3-[(piperidine-1-yl)methyl] benzoic acid], the IC50 at E. coli topoisomerase IV came out at 15.3 nM; at E. coli DNA gyrase [1], 0.31 nM. The MIC in assay [2] was found to be 0.015 µg/mL (≈ 0.0332 µM); in the assay with E. Coli ATCC 25922 it was 4 µg/mL (≈ 8.84 µM).
As to `CNc1cc(F)cc2cc(C(=O)Nc3ccc(C(=O)O)cc3CN(CC(=O)O)C3CCCCC3)c(=O)[nH]c12` [Example 107, 3-{[(carboxymethyl) (cyclohexyl)amino]methyl} -4-{[6-fluoro-8-(methylamino)-2-oxo-1,2-dihydroquinoline-3-carbonyl]amino} benzoic acid], the results for the IC50 at E. coli topoisomerase IV (setting [4]) and at E. coli DNA gyrase [1] (setting [6]) were 76.3 nM and 0.57 nM, respectively. Moreover, the figures for the MIC (in assay [2]; against E. Coli ATCC 25922) were 0.5 µg/mL (≈ 0.953 µM) and more than 64 µg/mL, respectively.
Take `CNc1cc(F)cc2cc(C(=O)Nc3cnc(C(=O)O)nc3)c(=O)[nH]c12` [Example 65, 5-[[6-Fluoro-8-(methylamino)-2-oxo-1,2-dihydroquinoline-3-carbonyl]amino]pyrimidine-2-carboxylic Acid]: the half-inhibitory concentration (IC50) at E. coli topoisomerase IV (setting [4]) was 32.5 nM; on E. coli DNA gyrase [3] (setting [5]), 0.95 nM. Moreover, the results for the MIC (in assay [2]; against E. Coli ATCC 25922) were 0.5 µg/mL (≈ 1.4 µM) and more than 16 µg/mL, respectively.
In the case of `CNc1cc(F)cc2c(O)c(C(=O)Nc3ccc(C(=O)O)cc3CN3CCCCC3)c(=O)[nH]c12.O=C(O)C(F)(F)F` [Example 153, 4-{[6-fluoro-4-hydroxy-8-(methylamino)-2-oxo-1,2-dihydroquinoline-3-carbonyl]amino}-3-[(piperidine-1-yl)methyl]benzoic acid-trifluoroacetate], the IC50 against E. coli topoisomerase IV was 4930 nM; at E. coli DNA gyrase [1], 7.53 nM. Moreover, the MIC in assay [2] was 0.06 µg/mL; in the assay on E. Coli ATCC 25922, 8 µg/mL.
For `CNc1cc(F)cc2cc(C(=O)Nc3ccc(C(=O)O)cc3)c(=O)[nH]c12` [Example 33, 4-[[6-Fluoro-8-(methylamino)-2-oxo-1,2-dihydroquinoline-3-carbonyl]amino]benzoic Acid], in that order: 219 nM, 0.36 nM, 0.004 µg/mL (≈ 0.0113 µM) and 16 µg/mL (≈ 45 µM).
For `CNc1cc(F)cc2cc(C(=O)Nc3ccc(C(=O)O)cc3CN(CCO)C3CCCCC3)c(=O)[nH]c12.Cl` [Example 104, 3-{[cyclohexyl (2-hydroxyethyl)amino]methyl}-4-{[6-fluoro-8-(methylamino)-2-oxo-1,2-dihydroquinoline-3-carbonyl]amino} benzoic acid-hydrochloride], in that order: 23.4 nM, 0.29 nM, 0.015 µg/mL and 8 µg/mL.
Take `CNc1cc(F)cc2cc(C(=O)Nc3ccc(C(=O)NS(=O)(=O)N(C)C)cc3)c(=O)[nH]c12` [Example 146, N-{4-[(dimethylsulfamoyl)carbamoyl]phenyl}-6-fluoro-8-(methylamino)-2-oxo-1,2-dihydroquinoline-3-carboxamide]: the values for the IC50 on E. coli topoisomerase IV (setting [4]) and at E. coli DNA gyrase [1] (setting [6]) were 51.9 nM and 0.43 nM, respectively. Further, the MIC in assay [2] came to 0.008 µg/mL (≈ 0.0173 µM); with E. Coli ATCC 25922, 16 µg/mL (≈ 34.7 µM).
Turning to `CNc1cc(F)cc2cc(C(=O)Nc3ccc(C(=O)O)cc3CN(C)C3CCCCC3)c(=O)[nH]c12` [Example 70, 3-{[cyclohexyl (methyl)amino]methyl}-4-{[6-fluoro-8-(methylamino)-2-oxo-1,2-dihydroquinoline-3-carbonyl]amino} bezoic acid-hydrochloride], the 50% inhibitory concentration (IC50) is 47.4 nM on E. coli topoisomerase IV and 0.53 nM at E. coli DNA gyrase [3]. For the same compound, the MIC was determined as 0.03 µg/mL in assay [2] and 8 µg/mL in the assay with E. Coli ATCC 25922.
Take `CNc1cc(F)cc2c(O)c(C(=O)Nc3ccc(C(=O)NS(=O)(=O)N(C)C)cc3)c(=O)[nH]c12` [Example 148, N-{4-[(dimethyl-sulfamoyl)carbamoyl]phenyl}-6-fluoro-4-hydroxy-8-(methylamino)-2-oxo-1,2-dihydroquinoline-3-carboxamide]: the concentration for half-maximal inhibition (IC50) at E. coli topoisomerase IV was 127 nM; at E. coli DNA gyrase [1] it was 2.66 nM. The minimal inhibitory concentration (MIC) in assay [2] was not above 0.0005 µg/mL; against E. Coli ATCC 25922, 1 µg/mL (≈ 2.09 µM).
`CNc1cc(F)cc2c(O)c(C(=O)Nc3ccc(C(=O)O)cc3)c(=O)[nH]c12` [Example 117, 4-[[6-Fluoro-4-hydroxy-8-(methylamino)-2-oxo-1,2-dihydroquinoline-3-carbonyl]amino]benzoic Acid]: the figures for the IC50 on E. coli topoisomerase IV (setting [4]) and on E. coli DNA gyrase [1] (setting [6]) were 62.9 nM and 1.1 nM, respectively. In addition, the MIC in assay [2] came out at 0.0005 µg/mL (≈ 0.00135 µM); in the assay with E. Coli ATCC 25922, 1 µg/mL (≈ 2.69 µM).
